Results taken from publication PMC2361324, “Phase 1 trial of the antiangiogenic peptide ATN-161 (Ac-PHSCN-NH2), a beta integrin antagonist, in patients with solid tumours” (British Journal of Cancer, 2006).

What was measured:
[1] = tested on: advanced solid tumours; experiment: Clinical response by RECIST in phase 1 trial; format: in vivo, human
Protocol: During treatment, patients were evaluated monthly with physical examinations including toxicity assessment using the CTC, ECOG PS, serum chemistry, haematology and coagulation testing. Tumour burden was reassessed every two cycles (8 weeks) by physical exam or radiological methods as appropriate using RECIST ([Therasse et al, 2000]).

[2] = tested on: DU145 prostate cancer cell line; conditions: in vitro, human DU145 prostate cancer cell line; ref Livant et al, 2000b; cited from earlier work
Description: (§1) In vitro, ATN-161 inhibited PHSRN-induced basement membrane invasion of human (DU145) and rat (MLL) prostate cancer cell lines ([Livant et al, 2000b]).

[3] = tested on: MLL prostate cancer cell line; conditions: in vitro, rat MLL prostate cancer cell line; ref Livant et al, 2000b; cited from earlier work
Description: as §1

[4] = tested on: integrin beta subunits; conditions: ref Donate et al, 2003; cited from earlier work
Description: (§2) ATN-161 is a noncompetitive inhibitor of the fibronectin PHSRN sequence, in which a cysteine residue has been substituted for arginine along with peptide acetylation and amidation in order to yield a product with acceptable pharmaceutical properties (Ac-PHSCN-NH2). […] Thus, ATN-16 ...

[5] = tested on: integrin-dependent adhesion; conditions: ref Plunkett and Mazar, 2002, Plunkett et al; cited from earlier work
Description: as §2

**Q.** What does the source list for Ac-PHSCN-NH2 [ATN-161, Ac-PHSCN-NH2]?
**A.** Objective response as defined by RECIST ([1]; 26 patients, 0.1-16 mg kg^−1 thrice weekly i.v.): No patient in the study had an objective response; Fraction of patients with prolonged stable disease ([1]; patients in the study, all dose levels): 1/3; Patients with stable disease of >4 months ([1]; six of the 26 treated patients, 0.1-16 mg kg^−1 thrice weekly i.v.): 23%; PHSRN-induced basement membrane invasion [2]: inhibited; PHSRN-induced basement membrane invasion [3]: inhibited; Binding to integrin subunits [4]: binds exclusively to integrin beta subunits; Block of integrin-dependent adhesion [5]: does not block
